{
  "source": "paper PMC5378956",
  "about": "“Inhibition of delta-secretase improves cognitive functions in mouse models of Alzheimer's disease” (Nature Communications, 2017)",
  "key": {"[1]": {"test": "NMR stability and thiol reactivity (cysteamine, β-mercaptoethanol)", "format": "physicochemical"}, "primary neurons": {"system": "primary neurons", "test": "LDH release of primary neurons after OGD", "format": "cell-based, mouse"}, "GAPDH": {"target": "T1, GAPDH (Mus musculus, UniProt P16858)", "T1 construct": "GAPDH activity in primary neurons; endogenous in cells; host or cells: primary neurons (mouse cortical)", "test": "GAPDH activity assay in primary neurons", "format": "cell-based", "protocol": "GAPDH activity was assessed using the GAPDH Activity Assay Kit (Biovision) according to the manufacture's instructions."}, "5XFAD mice [2]": {"system": "5XFAD mice", "protocol": "Only 2-month-old male mice were used in the present study. Sample size was determined by Power and Precision (Biostat). The animals were randomly allocated to experimental groups. Investigators were blinded to the group allocation during the animal experiments. […] The protocol was reviewed and approved by the Emory Institutional Animal Care and Use Committee. Rabbit anti-tau N368 (1:1,000), and anti-APP585N (1:500) antibody, which specifically recognize the δ-secretase-derived tau and APP fragments respectively, were described previously. […] TUNEL in situ cell death detection kit was from Roche (Indianapolis, IN). […] All chemicals not included above were purchased from Sigma-Aldrich (St. Louis, MO). Recombinant δ-secretase was obtained from Sino Biological (Beijing, China), recombinant cathepsin-S was obtained from Athens Research and Technology (Athens, GA), recombinant caspase-3 and caspase-8 were obtained from Millipore (Billerica, MA).\nThe mice were trained in a round, water-filled tub (52′ diameter) in an environment rich with extra maze cues. An invisible escape platform was located in a fixed spatial location 1 cm below the water surface independent of a subject's start position on a particular trial. In this manner, subjects needed to utilize extra maze cues to determine the platform's location. At the beginning of each trial, the mouse was placed in the water maze with their paws touching the wall from 1 of 4 different starting positions (N, S, E, W). […] On reaching the invisible escape platform, subjects were left on it for an additional 5 s to allow for survey of the spatial cues in the environment to guide future navigation to the platform. After each trial, subjects were dried and kept in a dry plastic holding cage filled with paper towels to allow the subjects to dry off. The temperature of the water was monitored every hour so that mice were tested in water that was between 22 and 25 °C. Following the 5 days of task acquisition, a probe trial was presented during which the platform was removed. The percentage of time that was spent in the quadrant, which previously contained the escape platform during task acquisition, was measured over 60 s. All trials were analysed for latency, swim path length and swim speed by means of MazeScan (Clever Sys, Inc.).\nAfter rinsed in distilled water, the sections were transferred to blocking solution (1% sodium hydroxide and 0.9% hydrogen peroxide) for 20 min. […] The sections were washed with 50% ethanol and placed in distilled water. Then the sections were covered with glass cover using mounting solution.\nTo detect the Aβ deposition in 5XFAD mice, the mice brains were homogenized in 8 × mass of 5 M guanidine HCl/50 mM Tris–HCl (pH 8.0), and incubated at room temperature for 3 h. Then the samples were diluted with cold reaction buffer (phosphate buffered saline with 5% BSA and 0.03% Tween 20, supplemented with protease inhibitor cocktail) and centrifuged at 16,000g for 20 min at 4 °C. The supernatant were analysed by human Aβ42 and Aβ40 ELISA kit according to the manufacturer's instructions (KHB3441 and KHB3481, Invitrogen). The Aβ42 and Aβ40 concentrations were determined by comparison with the standard curve. The concentrations of IL-1β and TNFα in the mice brain were detected using mouse IL-1β and TNFα ELISA kit from eBioscience according to the manufacture's instructions."}, "tau P301S mice": {"system": "tau P301S mice", "test": "Chronic toxicity after 3 months oral gavage", "format": "in vivo, mouse", "excerpt": "[…]. […] […]."}, "5XFAD mice [3]": {"system": "5XFAD mice", "conditions": "5 or 10 mg kg-1 oral; 1, 2, 4 h"}, "[4]": {"system": "δ-secretase-mediated truncation of tau", "procedure": "A half medium was changed to fresh Neurobasal/B27 every 4 days. The neurons were maintained for 13 days in vitro (DIV). Compounds were pre-incubated with primary culture neurons for 30 min. […] The neuronal lysates were prepared for δ-secretase assay."}, "[5]": {"test": "Redox potential, horseradish peroxidase-phenol red assay (H2O2 production)"}, "δ-secretase": {"target": "T2, δ-secretase (Homo sapiens, UniProt Q99538)", "T2 construct": "tested with purified active δ-secretase, IC50 values for the top 8 candidates were calculated; purchased Sino Biological (Beijing, China)", "T2 sequence (Q99538 18-323 limits assumed)": "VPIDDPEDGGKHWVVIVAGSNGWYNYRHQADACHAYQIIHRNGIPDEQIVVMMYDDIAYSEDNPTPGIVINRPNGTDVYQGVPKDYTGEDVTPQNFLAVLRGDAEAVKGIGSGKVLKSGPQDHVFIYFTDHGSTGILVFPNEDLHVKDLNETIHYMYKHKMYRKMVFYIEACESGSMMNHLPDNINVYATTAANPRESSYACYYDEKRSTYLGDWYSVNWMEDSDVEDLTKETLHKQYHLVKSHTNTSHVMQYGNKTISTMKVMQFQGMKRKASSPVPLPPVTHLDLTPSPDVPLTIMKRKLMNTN", "test": "DTT and L-cysteine reversibility of δ-secretase inhibition", "format": "biochemical", "conditions": "10 mM DTT or L-cysteine, inhibitor at its IC50"}},
  "note": "“Also recorded” adds a separate entry of the source.",
  "data": [
    {"compound": "Nc1ccc(N2CCOCC2)c2nonc12", "note": "[compound 11, 7-(morpholin-4-yl)-2,1,3-benzoxadiazol-4-amine]", "values": [
      {"measurement": "reaction with β-mercaptoethanol", "setting": "[1]", "result": "did not react; also recorded: unreactive"},
      {"measurement": "stability by NMR spectroscopy", "setting": "[1]; presence or absence of cysteamine", "result": "stable"},
      {"measurement": "OGD-induced cell toxicity in neurons from 5XFAD or tau P301S mice", "setting": "primary neurons; cultured neurons from 5XFAD mice or tau P301S mice", "result": "attenuated OGD-induced cell toxicity"},
      {"measurement": "neuronal injury induced by OGD in δ-secretase knockout neurons", "setting": "primary neurons; neurons from δ-secretase knockout mice", "result": "did not further protect"},
      {"measurement": "neuronal injury (LDH in medium) induced by OGD", "setting": "primary neurons; wild-type neurons", "result": "attenuated neuronal injury"},
      {"measurement": "GAPDH inhibition", "setting": "GAPDH; 2 μM", "result": "failed to inhibit GAPDH"},
      {"measurement": "GAPDH inhibition", "setting": "GAPDH; 50 μM", "result": "some inhibitory effect"},
      {"measurement": "Aβ deposition, time and dose dependence", "setting": "5XFAD mice [2]; 2, 5 or 10 mg kg−1 d−1 for 1.5 and 3 months", "result": "attenuated Aβ deposition in a time- and dose-dependent manner"},
      {"measurement": "concentrations of IL-1β and TNFα", "setting": "5XFAD mice [2]; 5XFAD mice", "result": "reduced the concentrations of inflammatory cytokines IL-1β and TNFα"},
      {"measurement": "activity of δ-secretase in mice brain", "setting": "5XFAD mice [2]; 5XFAD, oral once daily, 3 months", "result": "significantly inhibited"},
      {"measurement": "concentrations of Aβ 1–40 and Aβ 1–42 in brain lysates", "setting": "5XFAD mice [2]; ELISA", "result": "significantly decreased"},
      {"measurement": "cleavage of APP by δ-secretase at N373 and N585", "setting": "5XFAD mice [2]; Western blot", "result": "decreased the cleavage of APP"},
      {"measurement": "Morris water maze distance to platform", "setting": "5XFAD mice [2]; acquisition", "result": "decreased distance to platform"},
      {"measurement": "LTP deficits", "setting": "5XFAD mice [2]; mouse, in vivo", "result": "significantly reversed the LTP deficits"},
      {"measurement": "density of spines (Golgi stain)", "setting": "5XFAD mice [2]; mouse, in vivo", "result": "increased the density of spines"},
      {"measurement": "expression of C83", "setting": "5XFAD mice [2]; mouse, in vivo", "result": "not altered"},
      {"measurement": "expression of C99", "setting": "5XFAD mice [2]; mouse, in vivo", "result": "decreased"},
      {"measurement": "plaque deposition in hippocampus and frontal cortex (Thioflavin S)", "setting": "5XFAD mice [2]; mouse, in vivo", "result": "attenuated"},
      {"measurement": "probe test, time in target quadrant", "setting": "5XFAD mice [2]; mouse, in vivo", "result": "spent more time in the target quadrant"},
      {"measurement": "swim speed", "setting": "5XFAD mice [2]; mouse, in vivo", "result": "not affected"},
      {"measurement": "complete blood count, renal and liver function tests overall", "setting": "tau P301S mice; 10 mg kg−1 d−1, 3 months", "result": "all parameters were comparable with the vehicle-treated mice"},
      {"measurement": "hematoxylin and eosin staining of major organs", "setting": "tau P301S mice; 10 mg kg−1 d−1, 3 months", "result": "no major differences between vehicle-treated and drug-treated animals"},
      {"measurement": "systemic toxicity", "setting": "tau P301S mice; 10 mg kg−1 d−1, 3 months", "result": "does not exhibit systemic toxicity"},
      {"measurement": "weight of major organs (heart, liver, spleen, brain, kidney)", "setting": "tau P301S mice; 10 mg kg−1 d−1, 3 months", "result": "not changed"},
      {"measurement": "body weight", "setting": "tau P301S mice; 10 mg kg−1 d−1 oral gavage, 3 months", "result": "no significant change in body weight"},
      {"measurement": "ALB", "setting": "tau P301S mice; 10 mg kg−1 d−1 oral, 3 months", "result": "3.57 ± 0.06", "unit": "g/dL"},
      {"measurement": "ALP", "setting": "tau P301S mice; 10 mg kg−1 d−1 oral, 3 months", "result": "35.25 ± 28.48", "unit": "U L-1"},
      {"measurement": "ALT", "setting": "tau P301S mice; 10 mg kg−1 d−1 oral, 3 months", "result": "64.25 ± 34.60", "unit": "U L-1"},
      {"measurement": "BUN", "setting": "tau P301S mice; 10 mg kg−1 d−1 oral, 3 months", "result": "26.75 ± 3.30", "unit": "mg/dL"},
      {"measurement": "Hemoglobin", "setting": "tau P301S mice; 10 mg kg−1 d−1 oral, 3 months", "result": "12.7 ± 0.94", "unit": "g/dL"},
      {"measurement": "MCH", "setting": "tau P301S mice; 10 mg kg−1 d−1 oral, 3 months", "result": "17.53 ± 3.42", "unit": "pg"},
      {"measurement": "MCHC", "setting": "tau P301S mice; 10 mg kg−1 d−1 oral, 3 months", "result": "40.8 ± 5.07", "unit": "%"},
      {"measurement": "Red blood cell", "setting": "tau P301S mice; 10 mg kg−1 d−1 oral, 3 months", "result": "7.38 ± 1.15 X1012 l-1"},
      {"measurement": "TBIL", "setting": "tau P301S mice; 10 mg kg−1 d−1 oral, 3 months", "result": "0.15 ± 0.17", "unit": "mg/dL"},
      {"measurement": "White blood cell", "setting": "tau P301S mice; 10 mg kg−1 d−1 oral, 3 months", "result": "1.37 ± 0.08 X109 l-1"},
      {"measurement": "platelet", "setting": "tau P301S mice; 10 mg kg−1 d−1 oral, 3 months", "result": "491.26 ± 69.8 X109 l-1"},
      {"measurement": "concentrations of Aβ in plasma and brain after single dose", "setting": "5XFAD mice [3]", "result": "time- and dose-dependently decreased"},
      {"measurement": "OGD-induced cleavage of human tau (tau N368)", "setting": "[4]", "result": "inhibited by compound 11 in a dose-dependent manner"},
      {"measurement": "production of H2O2 (redox potential)", "setting": "[5]", "result": "none of them produced H2O2"}
    ]},
    {"compound": "Cn1c(=O)[nH]c(=O)c2c1nc(S)n2CC(O)COc1ccc(Cl)cc1", "note": "(stereo not shown) [compound 38]", "values": [
      {"measurement": "recovery of δ-secretase activity on addition of reducing agents", "setting": "δ-secretase", "result": "regained a substantial amount of activity"}
    ]}
  ]
}
